This passage reports Ki and IC50 results from patent US5068325A, “4,5,7,8-tetrahydro-6H-thiazolo[5,4-d]azepines, their preparation and their use as pharmaceutical compositions” (priority 1988, dated 1991).

Common to all, as to assay type: binding
The target of experiment [1] is T1, serotonin-1A(5-HT1A) receptors (Rattus norvegicus, UniProt P19327).
T1 construct: The frontal cortex was dissected out; from tissue; host or cells: rat frontal cortex homogenate (Chbb:Thom strain)
T1 sequence (P19327 1-422): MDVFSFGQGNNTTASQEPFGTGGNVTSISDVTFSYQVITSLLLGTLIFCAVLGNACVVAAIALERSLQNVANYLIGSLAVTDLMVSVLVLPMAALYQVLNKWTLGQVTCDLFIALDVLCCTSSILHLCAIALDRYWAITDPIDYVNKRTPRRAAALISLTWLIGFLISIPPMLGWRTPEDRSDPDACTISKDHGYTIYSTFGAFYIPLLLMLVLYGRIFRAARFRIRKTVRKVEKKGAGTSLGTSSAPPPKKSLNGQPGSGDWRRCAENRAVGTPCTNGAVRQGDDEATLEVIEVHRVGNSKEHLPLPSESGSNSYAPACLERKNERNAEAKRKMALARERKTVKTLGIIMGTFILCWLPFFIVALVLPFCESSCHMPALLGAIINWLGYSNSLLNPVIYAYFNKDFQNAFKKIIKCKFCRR
Description: affinity for serotonin-1A (5-HT1A) receptors by displacement experiments with [3H]-8-OH-DPAT (rat frontal cortex). The conditions noted are these: [3H]-8-OH-DPAT; rat frontal cortex; read-out: 5-HT1A-Ki. How it is done: 3. […] (Method of S. J. Peroutka, J. Neurochem. 47, 529 (1986), modified according to H. Gozlan et al., J. Receptor Research 7. 195 (1987))
A male rat (Chbb:Thom strain weighing about 200 g) was decapitated. The brain was removed and placed in ice-cold buffer (50 mmol/1 tris-HCl plus hydrochloric acid ad pH =7.4 at ambient temperature). The frontal cortex was dissected out; its moist weight was determined. It was homogenised in 40 times its volume of buffer (Polytron, position 6, 10 seconds), then centrifuged for 20 minutes at 45,000×g in the refrigerated centrifuge. The pellet was washed in 100 times its volume of buffer and centrifuged again as described above. The resulting pellet was resuspended in 40 times its volume of buffer and pre-incubated for 10 minutes at 37° C. Sixty times the volume of buffer were added and centrifuging was carried out as above. The resulting pellet was washed with 100 times the volume of buffer and centrifuged as above. The pellet was resuspended in buffer (0.8 ml/10 mg) and briefly homogenised in the Polytron. This homogenised tissue was cooled in ice until ready for incubation.
Incubation was stopped by rapid filtering through Whatman GF/B filters; rinsing was carried out twice, each time with 5 ml of ice cold buffer (Filter Prep, Messrs. Ismatec). The radioactivity of the filters was determined by liquid scintillation measurement.
(§1) Specific binding is obtained from total binding minus non-specific binding.

The target of experiment [2] is T2, serotonin-2(5-HT2)-receptors (Rattus norvegicus, UniProt P14842).
T2 construct: The frontal cortex was dissected out and placed in ice cold 0.32 M saccharose solution; from tissue; host or cells: rat frontal cortex homogenate (Chbb:Thom strain)
T2 sequence (P14842 whole entry): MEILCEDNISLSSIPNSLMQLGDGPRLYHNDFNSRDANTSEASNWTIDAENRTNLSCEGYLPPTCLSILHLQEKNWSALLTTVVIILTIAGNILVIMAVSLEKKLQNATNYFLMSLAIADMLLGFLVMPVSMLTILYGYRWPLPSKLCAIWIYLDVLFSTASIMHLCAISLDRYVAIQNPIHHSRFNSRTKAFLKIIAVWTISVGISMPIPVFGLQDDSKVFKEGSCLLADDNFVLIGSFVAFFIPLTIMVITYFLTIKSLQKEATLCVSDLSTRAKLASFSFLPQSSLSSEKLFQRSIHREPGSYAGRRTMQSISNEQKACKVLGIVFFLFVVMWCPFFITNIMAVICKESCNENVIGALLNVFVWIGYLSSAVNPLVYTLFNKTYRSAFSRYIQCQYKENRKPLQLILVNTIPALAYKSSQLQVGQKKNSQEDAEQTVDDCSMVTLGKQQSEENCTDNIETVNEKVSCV
The experiment can be described thus: affinity for serotonin-2 (5-HT2) receptors by displacement experiments with [3H]-spiperone (rat frontal cortex). On the procedure:
as §1
A male rat (Chbb:Thom strain, about 200 g) was decapitated. The brain was removed. The frontal cortex was dissected out and placed in ice cold 0.32 M saccharose solution; its moist weight was determined. It was homogenised in 10 times the volume (0.32 M) of saccharose solution for 1 minute at 800 rpm in a Potter S (made by Braun of Melsungen). The homogenised material was centrifuged for 10 minutes at 1000×g (=3,000 rpm with a rotor 8×38 ml) in a refrigerated centrifuge. The supernatant was decanted off and homogenised (Polytron, position 5, 1 minute); the sediment was discarded. 5 ml (=0.5 g moist weight) of the tissue suspension thus obtained were made up to 40 ml with buffer (50 mm tris-HCl; pH=7.7 at ambient temperature).
0.8 ml of the buffered homogenised tissue (=10 mg moist weight) were incubated with 0.1 ml of a solution of [^3 H]-spiperone (about 0.2 nmol/1 final concentration) and with 0.1 ml of a solution of the test substance (increasing concentration) for 15 minutes at 37° C. (triple measurement). Incubation was stopped by rapid filtering through a Whatman GF/B filter; rinsing was carried out 3 times, each time with 5 ml of ice cold buffer within a maximum of 10 seconds (Filter Prep Messrs. Ismatec). The radioactivity of the filters was determined by liquid scintillation measurement.
The specific binding is obtained from the total binding minus the non-specific binding. The averages of the triple measurements are entered in a system of coordinates as in 1.3. The IC50 value is the concentration which inhibits the specific binding of [^3 H]-spiperone by 50%.

A further experiment deals with T3, alpha-2 receptors (Rattus norvegicus, UniProt P22909).
T3 sequence (P22909 1-465): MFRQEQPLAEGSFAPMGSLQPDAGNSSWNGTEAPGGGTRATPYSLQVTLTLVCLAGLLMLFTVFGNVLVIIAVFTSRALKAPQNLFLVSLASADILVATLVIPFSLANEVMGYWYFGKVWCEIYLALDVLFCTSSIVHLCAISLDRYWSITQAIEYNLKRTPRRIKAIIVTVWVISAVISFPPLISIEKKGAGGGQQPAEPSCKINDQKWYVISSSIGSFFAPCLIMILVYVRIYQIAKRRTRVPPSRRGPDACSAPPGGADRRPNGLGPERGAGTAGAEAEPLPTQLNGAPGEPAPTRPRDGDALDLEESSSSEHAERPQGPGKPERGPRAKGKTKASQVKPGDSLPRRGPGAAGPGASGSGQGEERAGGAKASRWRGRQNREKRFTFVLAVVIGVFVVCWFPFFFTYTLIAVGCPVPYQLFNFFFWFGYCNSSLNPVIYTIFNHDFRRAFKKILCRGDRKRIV
The experiment can be described thus: affinity for alpha-2 receptors by displacement experiments with [3H]-clonidine (rat cortex membranes). To be noted: read-out: α2-IC50.

Description for alpha-2 receptors: Determination of the affinity for alpha-2 receptors by displacement experiments with [^3 H] clonidine (Modified Method of B. Jarrott, W. J. Louis and R. J. Summers, Biochem. Pharmacol. 27, 141 (1979))
A male rat (Chbb:Thom strain weighing about 200 g) was killed by a blow to the back of the neck. The brain was removed and the cortex dissected out, weighed and homogenised in 25 volumes of tris buffer (50 mM tris- HCl, pH 7.50) for 30 seconds in an Ultra-Turrax at maximum speed, followed by 10° Cycles in a Potter- Elvehjem at 1400 rpm. The homogenised material was combined with tris buffer to obtain a homogenate dilution of 1:50 (based on the weight of the cortex).
1 ml aliquots of the membrane preparation were incubated for three hours at ambient temperature with 1 ml of a solution of 1 nM of [^3 H]-clonidine (2.2 TBq/mmol, Messrs. DuPont NEN) and with increasing concentrations of the test substance (10^-11 to 10^-4 M). Incubation was ended by the addition of 5 ml of ice-cold tris buffer and filtration through Whatman GF/B filters. The filters were washed twice, each time with 5 ml of ice cold buffer. The radioactivity of the filters was determined by liquid scintillation measurement in Instagel(R) (Messrs. Canberra Packard). The non-specific binding was determined in the presence of 10^-5 M of oxymetazoline (Sigma Chemical Co.).
Displacement curves were obtained from the data using the TOPFIT programming package (G. Heinzel in "Pharmacokinetics During Drug Development: Data Analysis and Evaluation Techniques", G. Bozler and J. M. van Rossum Eds., G. Fischer Verlag, Stuttgart 1982, 207).

For orientation: Ki means the equilibrium dissociation constant of an inhibitor or competing ligand from its target. What is called IC50 is the concentration that inhibits the measured activity by half. Consider `Nc1nc2c(s1)CCN(CC=Cc1cc3ccccc3cn1)CC2` [Example 24a, 2-Amino-6-(3-(3-isoquinolinyl)allyl)-4,5,7,8-tetrahydro-6H-thiazolo[5,4-d]azepine], for which the inhibition constant (Ki) in experiment [1] is 3500 nM; in experiment [2] it was 560 nM. On alpha-2 receptors, the IC50 turned out to be 900 nM.
Compound `Nc1nc2c(s1)CCN(Cc1ccc(Cl)cc1)CC2` [Compound B, reference compound] displayed a Ki in experiment [2] of 18400 nM. Further, the IC50 on alpha-2 receptors is 410 nM.
Regarding `N#Cc1ccc(C=CCN2CCc3nc(N)sc3CC2)cc1` [Example 14b, 2-Amino-6-(3-(4-cyano-phenyl)allyl)-4,5,7,8-tetrahydro-6H-thiazolo[5,4-d]azepine], the Ki amounted to 7800 nM in experiment [1] and 15000 nM in experiment [2]. Further, on alpha-2 receptors, the half-maximal inhibitory concentration (IC50) is 500 nM.
With `Nc1nc2c(s1)CCN(CC=Cc1cccc(OCc3ccccc3)c1)CC2` [Example 4y, 2-Amino-6-(3-(3-benzyloxy-phenyl)allyl)-4,5,7,8-tetrahydro-6H-thiazolo[5,4-d]azepine], the Ki stood at 23000 nM in experiment [1] and 470 nM in experiment [2]. Moreover, the IC50 on alpha-2 receptors was 300 nM.
Taken in the same sequence, the figures for `Nc1nc2c(s1)CCN(CC=Cc1nccc3ccccc13)CC2` [Example 7a, 2-Amino-6-(3-(1-isoquinolinyl)allyl)-4,5,7,8-tetrahydro-6H-thiazolo[5,4-d]azepine] were 1100 nM, 120 nM and 3100 nM.
The matching figures for `Nc1nc2c(s1)CCN(CC=Cc1cccc3ccccc13)CC2` [Example 4t, 2-Amino-6-(3-(1-naphthyl)allyl)-4,5,7,8-tetrahydro-6H-thiazolo[5,4-d]azepine]: 350 nM, 26 nM and 460 nM.
On to `C=CCN1CCc2nc(N)sc2CC1` [Compound A, reference compound], for which the Ki in experiment [1] was 4690 nM; in experiment [2], 20200 nM. Moreover, the IC50 at alpha-2 receptors came to 24 nM.
Taken in the same sequence, the figures for `Nc1nc2c(s1)CCN(CC=Cc1ccccc1N1CCCCC1)CC2` [Example 11p, 2-Amino-6-(3-(2-(1-piperidino)phenyl)-2-propen-1-yl)-4,5,7,8-tetrahydro-6H-thiazolo[5,4-d]azepine] were 1770 nM, 558 nM and 3000 nM.
